# According to ChEMBL document CHEMBL1146416, “A new glycoside antimicrobial agent from Persoonia linearis x pinifolia” (J Nat Prod, 1997):
# Activity calls are given as the source filed them. The calls are words filed in the database; no cut-off is given here.
# Assays:
# Type in all cases: functional, organism-based
# Bacillus subtilis = test: Antimicrobial activity against Bacillus subtilis RSC1 at <12.5 ug/disk after 24 hrs
# Phytophthora cinnamomi = test: Antimicrobial activity against Phytophthora cinnamomi RSC290 at 6.25 ug/disk after 18 to 24 hrs
# Escherichia coli = test: Antimicrobial activity against Escherichia coli RSC2 at 6.25 ug/disk after 18 to 24 hrs
compound,measurement,setting,value
C=C(C(=O)OC[C@H]1O[C@@H](Oc2ccc(O)cc2)[C@H](O)[C@@H](O)[C@@H]1O)[C@@H](O)CO,Activity,Bacillus subtilis,inactive
same,Activity,Phytophthora cinnamomi,Active
same,Activity,Escherichia coli,Active
